The values that follow are results of earlier work, collected in patent publication US5045452A, “Method for evaluating nephrotoxicity” (Brigham and Women's Hospital, priority 1988, dated 1991).

SMILES strings stand for the structures.

The subject of this data set is N-acetyl-beta-D-glucosaminidase. The conditions noted are these: exposed workers.

`[Pb]` [lead]: the “urinary acetyl glucosaminidase excretion” value is given as “elevated”.
